Measurements reported in the supplement of paper PMC10307832.

Assays:
Assay in all cases: relative viability (nuclei count vs DMSO), 5 days (fraction); higher = more cells survive
[1] = compound: Cn1cc(-c2cnn3c(N)c(Br)c([C@@H]4CCCNC4)nc23)cn1 + CC1(C)CCC(c2ccc(Cl)cc2)=C(CN2CCN(c3ccc(C(=O)NS(=O)(=O)c4ccc(N[C@H](CCN5CCOCC5)CSc5ccccc5)c(S(=O)(=O)C(F)(F)F)c4)cc3)CC2)C1 [Navitoclax] (partner 0.5 µM)
How it was run: (§1)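 Relative viability equals treated-well nuclei counts divided by vehicle-well nuclei counts. Counts came from 4× images of lung cancer cell lines grown in 1536-well plates for 5 days after pin-tool dosing on the day after seeding. Dosing used one drug alone or a fixed anchor-drug dose plus five library-drug doses (not always all listed) in √10 steps, and values are medians of duplicate plates.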

[2] = compound: Cn1cc(-c2cnn3c(N)c(Br)c([C@@H]4CCCNC4)nc23)cn1 + CCNC(=O)c1noc(-c2cc(C(C)C)c(O)cc2O)c1-c1ccc(CN2CCOCC2)cc1 [Luminespib] (partner 0.01 µM)
How it was run: as §1

[3] = compound: Cn1cc(-c2cnn3c(N)c(Br)c([C@@H]4CCCNC4)nc23)cn1 + COc1cc2c(Oc3ccc(NC(=O)C4(C(=O)Nc5ccc(F)cc5)CC4)cc3F)ccnc2cc1OCCCN1CCOCC1 [Foretinib] (partner 0.25 µM)
How it was run: as §1

[4] = compound: Cn1cc(-c2cnn3c(N)c(Br)c([C@@H]4CCCNC4)nc23)cn1 + C[C@]1(O)C[C@@H](c2nc(-c3ccc4ccc(-c5ccccc5)nc4c3)c3c(N)nccn32)C1 [Linsitinib] (partner 1 µM)
How it was run: as §1

| Cell Line | relative viability ([1]; first compound 0.05 µM) | relative viability ([1]; first compound 0.1581 µM) | relative viability ([1]; first compound 0.5 µM) | relative viability ([1]; first compound 1.581 µM) | relative viability ([1]; first compound 5 µM) | relative viability ([2]; first compound 0.05 µM) | relative viability ([2]; first compound 0.1581 µM) | relative viability ([2]; first compound 0.5 µM) | relative viability ([2]; first compound 1.581 µM) | relative viability ([2]; first compound 5 µM) | relative viability ([3]; first compound 0.05 µM) | relative viability ([3]; first compound 0.1581 µM) | relative viability ([3]; first compound 0.5 µM) | relative viability ([3]; first compound 1.581 µM) | relative viability ([3]; first compound 5 µM) | relative viability ([4]; first compound 0.05 µM) | relative viability ([4]; first compound 0.1581 µM) | relative viability ([4]; first compound 0.5 µM) | relative viability ([4]; first compound 1.581 µM) | relative viability ([4]; first compound 5 µM) |
| --- | --- | --- | --- | --- | --- | --- | --- | --- | --- | --- | --- | --- | --- | --- | --- | --- | --- | --- | --- | --- |
| PC-3 [JPC-3] | 0.75 | 0.899 | 0.735 | 0.832 | 0.899 | 0.702 | 0.642 | 0.619 | 0.564 | 0.748 | 1.02 | 1.2 | 0.997 | 1.03 | 1.06 | 0.966 | 0.989 | 0.975 | 0.975 | 1.03 |
| PC-14 | 1.06 | 1.14 | 0.924 | 0.69 | 0.444 | 0.179 |  | 0.179 | 0.159 | 0.165 | 0.974 | 1.04 | 0.933 | 0.903 | 0.53 | 0.854 | 1.11 | 1.05 | 0.877 | 0.578 |
| RERF-LC-KJ | 1.2 | 0.927 | 0.884 | 0.707 | 0.678 | 1.34 | 1.28 | 0.693 | 0.863 | 0.873 | 0.98 | 0.881 | 0.865 | 0.727 | 0.86 | 0.932 | 0.936 | 0.914 | 0.809 | 0.749 |
| SK-LU-1 | 0.717 |  | 0.254 | 0.188 | 0.186 | 0.184 | 0.207 | 0.233 | 0.186 | 0.165 | 0.819 | 0.709 | 0.485 | 0.28 | 0.211 | 1.13 |  | 0.465 | 0.318 | 0.255 |
| SK-MES-1 | 1.29 | 1.25 | 1.11 | 1.02 | 0.352 | 0.651 | 0.406 | 0.419 | 0.24 | 0.187 | 0.909 | 1.04 | 0.946 | 0.867 | 0.566 | 1.05 | 1.1 | 1.04 | 0.971 | 0.289 |
| SW 1573 | 0.976 | 1.07 | 1.08 | 0.853 | 1.07 | 0.211 | 0.288 | 0.21 | 0.185 | 0.146 | 0.97 | 1.09 | 0.865 | 0.848 | 1.01 | 0.689 | 0.775 | 0.888 | 0.753 | 0.805 |
| UMC-11 | 0.316 | 0.268 | 0.298 | 0.271 | 0.229 | 1.11 | 0.884 | 0.972 | 0.556 | 0.392 | 1 | 0.984 | 0.851 | 0.773 | 0.51 | 1.18 | 1.08 | 0.991 | 0.818 | 0.507 |
